For this assay, the system named is MCF-7 tumor models. Description: Live/dead staining of drug-treated 3D tumor models. To be noted: 200 μM, compared to negative and positive controls. Format: cell-based, human.

Structures are written as SMILES.

Procedure: To assess cell viability in both the core tumor model and the 3D breast tumor model with the stromal compartment, calcein (targets live cells in green) and propidium iodide (targets dead cells in red) were added to the cell culture medium of the 3D constructs at a 1:100 concentration.

On to `CC/C(=C(\c1ccccc1)c1ccc(OCCN(C)C)cc1)c1ccccc1` [Tamoxifen], for which the live/dead staining result is on record as “Dead cells are observed in the outer regions of the models”.

The values above are taken from US20260275299A1, “Bioprinted Three-Dimensional Tumor Model” (ASOCIACIÓN CENTRO DE INVESTIGACIÓN EN BIOMATERIALES - CIC …, priority 2023, published 2026).
